For data set [1], the target named is T1, hTGR5 (Homo sapiens, UniProt Q8TDU6).
T1 construct: expressed in transfected cells; host or cells: 293T cells, transient transfection with pTGR5 (gift from Prof. Johan Auwerx)
T1 sequence (Q8TDU6 1-330): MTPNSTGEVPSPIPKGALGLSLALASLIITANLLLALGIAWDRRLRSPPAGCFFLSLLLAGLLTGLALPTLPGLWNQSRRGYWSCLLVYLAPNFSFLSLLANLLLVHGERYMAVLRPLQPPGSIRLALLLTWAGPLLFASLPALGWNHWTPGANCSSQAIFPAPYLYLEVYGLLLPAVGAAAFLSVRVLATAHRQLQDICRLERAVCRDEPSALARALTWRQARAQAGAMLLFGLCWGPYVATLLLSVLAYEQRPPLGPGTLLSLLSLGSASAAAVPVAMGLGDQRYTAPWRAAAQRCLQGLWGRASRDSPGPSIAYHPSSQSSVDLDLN
The data set can be described thus: TGR5-dependent cAMP accumulation (ELISA) in transfected 293T cells. The class given is cell-based. The protocol:
For human TGR5 luciferase (luc) assay, 293T cells were co-transfected with pCRE-luc, pTGR5 (kind gift from Prof. Johan Auwerx, Ecole Polytechnique Fédérale de Lausanne, Lausanne, Switzerland) and pRenilla (Promega, USA). WB403 was added 5 h later. Cells were harvested after 16 h and subjected to luciferase analysis on Lumistar Optima chemiluminescent detector (BMG labtech, Germany). For cAMP testing, 293T cells transiently transfected with pTGR5 or pGPR119 (GeneCopoeia, USA) were washed by FBS-free DMEM, and stimulated with WB403 in FBS-free DMEM containing 3-isobutyl-1-methyl-xanthine (IBMX, Sigma). Cell lysates were collected 30 min later and used for cAMP ELISA assay. FLIPR Calcium 5 assay kit (Molecular Devices, USA) was used for calcium mobilization assay. […] Increase of the intracellular Ca^2+ concentration was monitored by Flexstation 3 system (Molecular Devices, USA).
The GLP-1 (active) ELISA kit was purchased from Millipore, and insulin ELISA kit was from Mercodia. For quantitative determination of cAMP, a competitive enzyme immunoassay kit from R&D system was used. […]
Fig 1 WB403 activated TGR5 and promoted active GLP-1 secretion. […] Gallbladders (GB) were removed 30 min later and volumes measured then normalized to body weight (B.W.). n = 10. **p<0.01 vs. vehicle group. […]

Data set [2] deals with normal mice. Briefly: oral glucose tolerance test in normal mice. The class given is in vivo. As to conditions: 4 g/kg glucose, oral 50, 100 mg/kg 30 min before load. As for the experimental part: Mice were fasted overnight (14 h) before glucose tolerance tests. Normal mice received a 4 g/kg glucose challenge and for diabetic mice it’s 2 g/kg. WB403 at 50, 100 mg/kg, or sitagliptin at 100 mg/kg were administrated orally 30 min prior to glucose load (n = 10). For vehicle group, 0.5% CMC was administrated. Blood glucose levels were measured from tail bleeds with a glucometer (Roche, Accu-Chek Performa) at specified time points. Animals were treated and assessed in the order of the vehicle, WB403 50, 100 mg/kg and sitagliptin 100 mg/kg group.
Fig 2 Effects of WB403 on glucose tolerance during OGTT in normal and diabetic mice. OGTT time course and AUC in normal mice (A, B), HFD/STZ mice (C, D) and db/db mice (E, F). Values represent mean ± SD (n = 10). *p<0.05, **p<0.01, ***p<0.001 vs. vehicle group. Asterisks in A, C and E reflect significance between WB403 100 mg/kg and vehicle group.

The target in data set [3] is T2, hGPR120 (Homo sapiens, UniProt Q5NUL3).
T2 construct: expressed in transfected cells; host or cells: 293 cells, transient transfection with a human GPR120 expression vector
T2 sequence (Q5NUL3 1-361): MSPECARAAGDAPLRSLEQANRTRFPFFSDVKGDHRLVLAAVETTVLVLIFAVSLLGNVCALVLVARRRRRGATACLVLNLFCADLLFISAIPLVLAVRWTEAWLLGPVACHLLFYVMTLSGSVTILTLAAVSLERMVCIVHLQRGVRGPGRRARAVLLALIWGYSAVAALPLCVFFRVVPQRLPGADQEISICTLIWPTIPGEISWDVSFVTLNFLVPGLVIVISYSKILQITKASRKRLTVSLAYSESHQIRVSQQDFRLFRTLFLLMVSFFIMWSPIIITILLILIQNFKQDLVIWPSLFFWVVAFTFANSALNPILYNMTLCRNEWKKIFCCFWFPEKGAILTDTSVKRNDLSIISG
The data set can be described thus: GPR120-dependent calcium mobilization in transfected 293 cells. The conditions noted are these: 10 or 100 μmol/l. The format is cell-based. The protocol:
For human TGR5 luciferase (luc) assay, 293T cells were co-transfected with pCRE-luc, pTGR5 (kind gift from Prof. Johan Auwerx, Ecole Polytechnique Fédérale de Lausanne, Lausanne, Switzerland) and pRenilla (Promega, USA). WB403 was added 5 h later. Cells were harvested after 16 h and subjected to luciferase analysis on Lumistar Optima chemiluminescent detector (BMG labtech, Germany). For cAMP testing, 293T cells transiently transfected with pTGR5 or pGPR119 (GeneCopoeia, USA) were washed by FBS-free DMEM, and stimulated with WB403 in FBS-free DMEM containing 3-isobutyl-1-methyl-xanthine (IBMX, Sigma). Cell lysates were collected 30 min later and used for cAMP ELISA assay. FLIPR Calcium 5 assay kit (Molecular Devices, USA) was used for calcium mobilization assay. 293-GPR40 stable cells (kindly provided by Prof. Naiming Zhou of Zhejiang University, Hanzhou, China) or 293 cells transient transfected with GPR120 were seeded at 50,000 cells per well in black-walled clear-bottomed 96-well plates (Costar). An equal volume of loading buffer containing Fluo 4-AM was added the following day and cells were incubated for 1 h before stimulated with compounds. Increase of the intracellular Ca^2+ concentration was monitored by Flexstation 3 system (Molecular Devices, USA).
Fig 6 Effect of WB403 on GPCRs related to GLP-1 secretion. (A) GPCR expression in human NCI-H716 and mouse MIN6 cells. […]

In data set [4] the test system is ICR mice. Briefly: 7-day acute toxicity test in ICR mice. The conditions noted are these: 6000 mg/kg group after 7-day acute toxicity test.

“Also recorded” adds a separate entry of the source.

As for `CCc1cc(-c2nc(C)c(COCc3ccc(Br)cc3)s2)ccn1` [WB403, 4-(5-((4-bromobenzyloxy)-methyl)-4-methylthiazol-2-yl)-2-ethylpyridine], the “Gs-coupled cAMP accumulation through TGR5” value in data set [1] (1–50 μmol/l, 30 min, IBMX, Fig 1B) is “dose-dependently stimulate”. Moreover, in data set [1] (control 293T cells transfected with an empty plasmid), the “cAMP activity in control 293T cells” value is recorded as “no stimulation”. Further, the “blood glucose tolerance (OGTT) vs vehicle” value in data set [2] is given as “significant improvement in blood glucose tolerance”. Moreover, the “hGPR120-Ca2+ activation (calcium mobilization)” value in data set [3] was “neither did it exhibit significant effect; also recorded: no significant effect”. Moreover, in data set [4], the “signs of toxicity in tissue sections (H&E)” value is reported as “did not show obvious signs of toxicity”.

For the origin of these results see paper PMC4514850, “A Novel TGR5 Activator WB403 Promotes GLP-1 Secretion and Preserves Pancreatic β-Cells in Type 2 Diabetic Mice” (PLoS ONE, 2015).
